Data reported in US7829585B2, “Antifungal agent containing pyridine derivative” (Eisai R&D Management Co., Ltd., priority 2005, dated 2010).
In brackets after ≈: the same amount, converted by molar mass.

Key:
[1] = tested on: C. albicans E81022 strain; test: Anti-Candida activity, MIC measurement (broth dilution, visual inspection); assay type: cell-based; conditions: C. albicans E81022, RPMI1640, 48 hours at 35° C.; for MIC: Candida albicans, E81022STRAIN, read-out: Anti-Candida activity (minimum growth inhibitory concentration, MIC)
Method: (§1) For the C. albicans E81022 strain, a fungal suspension from a standing culture 48 hours at 30° C. in a Sabouraud dextrose liquid culture medium (SDB) was diluted 10000-fold with 1.3-times concentrated RPMI1640 medium to prepare a fungal suspension containing 1 to 2×10^4 cells/ml. For the A. fumigatus Tsukuba strain, −80° C. stored strain was diluted 1000-fold with 1.3-times concentrated RPMI1640 medium to prepare a fungal suspension containing 2 to 3×10^3 cells/ml.
(§2) Using a U-shaped bottomed 96-well plates, 8 samples/plate (A to H) of sample dilution solutions were prepared. On the first row was dispensed 240 μl of sterile distilled water, and on the 2nd to 12th row were dispersed 125 μL of 4% dimethylsulfoxide solution. Weighed sample was dissolved in dimethylsulfoxide to prepare a 5 mg/ml solution followed by adding 10 μL of the solutions to the first row of the prepared plates and preparing 12-step serial 2-fold dilutions (125 μL of solution+125 μL of 4% dimethylsulfoxide solution) on the plates.
(§3) The fungal suspension prepared in (1) was used in the amount of 75 μL/well to inoculate the flat-bottomed 96-well plates containing 25 μL/well of the test compound prepared in (2), and a standing culture was carried out aerobically for 48 hours at 35° C.

[2] = tested on: A. fumigatus Tsukuba strain; test: Anti-Aspergillus activity, MIC measurement (broth dilution, visual inspection); assay type: cell-based; conditions: RPMI1640, 48 hours at 35° C., read-out: Anti-Aspergillus activity (minimum growth inhibitory concentration, MIC)
Method: as §1, §2, §3

For “2,6-Diamino-N-(6-(2-phenoxy-ethoxy)-benzofuran-2-ylmethyl)-nicotinamide [Example 80]”, the “Anti-Candida activity (minimum growth inhibitory concentration, MIC)” value [1] was 3.13 µg/mL.
Molecule `CC#CCOc1ccc2cc(CNC(=O)c3ccc(N)nc3N)oc2c1` [Example 8, 2,6-Diamino-N-(6-but-2-ynyloxy-benzofuran-2-ylmethyl)-nicotinamide] has an MIC [1] of 1.56 µg/mL (≈ 4.45 µM).
For `CCCCCOc1ccc2cc(CNC(=O)c3ccc(N)nc3N)oc2c1` [Example 12, 2,6-Diamino-N-(6-pentyloxy-benzofuran-2-ylmethyl)-nicotinamide], the MIC [1] was 0.78 µg/mL (≈ 2.12 µM) and the MIC [2] was 1.56 µg/mL (≈ 4.23 µM).
In the case of `CC(C)COc1ccc2cc(CNC(=O)c3ccc(N)nc3N)oc2c1` [Example 13, 2,6-Diamino-N-(6-isobutoxy-benzofuran-2-ylmethyl)-nicotinamide], the MIC [1] is reported as 0.39 µg/mL (≈ 1.1 µM) and the MIC [2] is reported as 1.56 µg/mL (≈ 4.4 µM).
`CC(C)CCOc1ccc2cc(CNC(=O)c3ccc(N)nc3N)oc2c1` [Example 14, 2,6-Diamino-N-(6-(3-methyl-butoxy)-benzofuran-2-ylmethyl)-nicotinamide] gave an MIC [1] of 1.56 µg/mL (≈ 4.23 µM).
Work on `CC(C)(C)COc1ccc2cc(CNC(=O)c3ccc(N)nc3N)oc2c1` [Example 16, 2,6-Diamino-N-(6-(2,2-dimethyl-propoxy)-benzofuran-2-ylmethyl)-nicotinamide] yielded an MIC [1] of 3.13 µg/mL (≈ 8.5 µM) and an MIC [2] of 6.25 µg/mL (≈ 17 µM).
`CC(C)=CCOc1ccc2cc(CNC(=O)c3ccc(N)nc3N)oc2c1` [Example 17, 2,6-Diamino-N-(6-(3-methyl-but-2-enyloxy)-benzofuran-2-ylmethyl)-nicotinamide] showed an MIC [1] of 0.78 µg/mL (≈ 2.13 µM).
`Nc1ccc(C(=O)NCc2cc3ccc(OCc4cccc(F)c4)cc3o2)c(N)n1` [Example 22, 2,6-Diamino-N-(6-(3-fluoro-benzyloxy)-benzofuran-2-ylmethyl)-nicotinamide] showed an MIC [1] of 0.39 µg/mL (≈ 0.96 µM) and an MIC [2] of 1.56 µg/mL (≈ 3.84 µM).
`Nc1ccc(C(=O)NCc2cc3ccc(OCc4ccccc4F)cc3o2)c(N)n1` [Example 23, 2,6-Diamino-N-(6-(2-fluoro-benzyloxy)-benzofuran-2-ylmethyl)-nicotinamide] was tested, and the “Anti-Candida activity (minimum growth inhibitory concentration, MIC)” value [1] was 1.56 µg/mL.
With `COCc1ccc(C(=O)NCc2cc3ccc(OC)cc3o2)c(N)n1` [Example 24, 2-Amino-N-(6-methoxy-benzofuran-2-ylmethyl)-6-methoxymethyl-nicotinamide] the MIC [1] was 6.25 µg/mL (≈ 18.3 µM) and the MIC [2] was 3.13 µg/mL (≈ 9.17 µM).
Molecule `CCCCOc1ccc2cc(CNC(=O)c3ccc(COC)nc3N)oc2c1` [Example 25, 2-Amino-N-(6-butoxy-benzofuran-2-ylmethyl)-6-methoxymethyl-nicotinamide] has an MIC [1] of 0.78 µg/mL (≈ 2.03 µM).
`CCC(C)COc1ccc2cc(CNC(=O)c3ccc(COC)nc3N)oc2c1` (centres unmarked) [Example 29, 2-Amino-6-methoxymethyl-N-(6-(2-methyl-butoxy)-benzofuran-2-ylmethyl)-nicotinamide] showed an MIC [1] of 1.56 µg/mL (≈ 3.92 µM) and an MIC [2] of 6.25 µg/mL (≈ 15.7 µM).
Molecule `COCc1ccc(C(=O)NCc2cc3ccc(OCC4CCCCO4)cc3o2)c(N)n1` (centres unmarked) [Example 33, 2-Amino-6-methoxymethyl-N-(6-(tetrahydro-pyran-2-ylmethoxy)-benzofuran-2-ylmethyl)-nicotinamide] has an MIC [1] of 12.5 µg/mL (≈ 29.4 µM).
Molecule `CCCOc1ccc2cc(CNC(=O)c3ccc(COC)nc3N)oc2c1` [Example 37, 2-Amino-6-methoxymethyl-N-(6-propoxy-benzofuran-2-ylmethyl)-nicotinamide] has an MIC [1] of 0.2 µg/mL (≈ 0.541 µM).
For `CC=CCOc1ccc2cc(CNC(=O)c3ccc(COC)nc3N)oc2c1` [Example 38, 2-Amino-N-(6-but-2-enyloxy-benzofuran-2-ylmethyl)-6-methoxymethyl-nicotinamide], the MIC [1] was 0.39 µg/mL (≈ 1.02 µM) and the MIC [2] was 0.78 µg/mL (≈ 2.04 µM).
In the case of `C#CCOc1ccc2cc(CNC(=O)c3ccc(COC)nc3N)oc2c1` [Example 39, 2-Amino-6-methoxymethyl-N-(6-prop-2-ynyloxy-benzofuran-2-ylmethyl)-nicotinamide], the MIC [1] is reported as 1.56 µg/mL (≈ 4.27 µM) and the MIC [2] is reported as 1.56 µg/mL (≈ 4.27 µM).
In the case of `COCCOc1ccc2cc(CNC(=O)c3ccc(COC)nc3N)oc2c1` [Example 40, 2-Amino-N-(6-(2-methoxy-ethoxy)-benzofuran-2-ylmethyl)-6-methoxymethyl-nicotinamide], the MIC [1] is reported as 3.13 µg/mL (≈ 8.12 µM) and the MIC [2] is reported as 3.13 µg/mL (≈ 8.12 µM).
In the case of `CCOCCOc1ccc2cc(CNC(=O)c3ccc(COC)nc3N)oc2c1` [Example 41, 2-Amino-N-(6-(2-ethoxy-ethoxy)-benzofuran-2-ylmethyl)-6-methoxymethyl-nicotinamide], the MIC [1] is reported as 3.13 µg/mL (≈ 7.84 µM).
In the case of `COCc1ccc(C(=O)NCc2cc3ccc(OCc4ccccc4F)cc3o2)c(N)n1` [Example 42, 2-Amino-N-(6-(2-fluoro-benzyloxy)-benzofuran-2-ylmethyl)-6-methoxymethyl-nicotinamide], the MIC [1] is reported as 1.56 µg/mL (≈ 3.58 µM) and the MIC [2] is reported as 3.13 µg/mL (≈ 7.19 µM).
For `COCc1ccc(C(=O)NCc2cc3ccc(OCc4cccc(F)c4)cc3o2)c(N)n1` [Example 43, 2-Amino-N-(6-(3-fluoro-benzyloxy)-benzofuran-2-ylmethyl)-6-methoxymethyl-nicotinamide], the MIC [1] was 0.78 µg/mL (≈ 1.79 µM) and the MIC [2] was 6.25 µg/mL (≈ 14.4 µM).
Molecule `COCc1ccc(C(=O)NCc2cc3ccc(OCc4ccccn4)cc3o2)c(N)n1` [Example 44, 2-Amino-6-methoxymethyl-N-(6-(pyridin-2-ylmethoxy)-benzofuran-2-ylmethyl)-nicotinamide] has an MIC [1] of 0.78 µg/mL (≈ 1.86 µM) and an MIC [2] of 6.25 µg/mL (≈ 14.9 µM).
`COCc1ccc(C(=O)NCc2cc3ccc(OCc4cccnc4)cc3o2)c(N)n1` [Example 45, 2-Amino-6-methoxymethyl-N-(6-(pyridin-3-ylmethoxy)-benzofuran-2-ylmethyl)-nicotinamide] showed an MIC [1] of 12.5 µg/mL (≈ 29.9 µM) and an MIC [2] of 12.5 µg/mL (≈ 29.9 µM).
`COCc1ccc(C(=O)NCc2cc3ccc(OCc4ccncc4)cc3o2)c(N)n1` [Example 46, 2-Amino-6-methoxymethyl-N-(6-(pyridin-4-ylmethoxy)-benzofuran-2-ylmethyl)-nicotinamide] was tested, and the MIC [1] was 0.39 µg/mL (≈ 0.932 µM).
`COCc1ccc2cc(CNC(=O)c3ccc(COC)nc3N)oc2c1` [Example 47, 2-Amino-6-methoxymethyl-N-(6-methoxymethyl-benzofuran-2-ylmethyl)-nicotinamide] gave an MIC [1] of 0.78 µg/mL (≈ 2.19 µM) and an MIC [2] of 1.56 µg/mL (≈ 4.39 µM).
For `COCc1ccc(C(=O)NCc2cc3ccc(Oc4ccccc4)cc3o2)c(N)n1` [Example 49, 2-Amino-6-methoxymethyl-N-(6-phenoxy-benzofuran-2-ylmethyl)-nicotinamide], the MIC [1] was 0.39 µg/mL (≈ 0.967 µM) and the MIC [2] was 6.25 µg/mL (≈ 15.5 µM).
With `Nc1ccc(C(=O)NCc2cc3cc(OCc4ccccc4)ccc3o2)c(N)n1` [Example 51, 2,6-Diamino-N-(5-benzyloxy-benzofuran-2-ylmethyl)-nicotinamide] the MIC [1] was 0.2 µg/mL (≈ 0.515 µM) and the MIC [2] was 0.78 µg/mL (≈ 2.01 µM).
`C=CCOc1ccc2oc(CNC(=O)c3ccc(N)nc3N)cc2c1` [Example 52, N-(5-Allyloxy-benzofuran-2-ylmethyl)-2,6-diamino-nicotinamide] showed an MIC [1] of 1.56 µg/mL (≈ 4.61 µM) and an MIC [2] of 0.78 µg/mL (≈ 2.31 µM).
`COCc1ccc(C(=O)NCc2cc3ccc(OCC4CC4)cc3[nH]2)c(N)n1` [Example 73, 2-Amino-N-(6-cyclopropylmethoxy-1H-indol-2-ylmethyl)-6-methoxymethyl-nicotinamide] gave an MIC [2] of 25 µg/mL (≈ 65.7 µM).
For `COCc1ccc(C(=O)NCc2cc3cc(Br)ccc3o2)c(N)n1` [Example 79, 2-Amino-N-(5-bromo-benzofuran-2-ylmethyl)-6-methoxymethyl-nicotinamide], the MIC [2] was 12.5 µg/mL (≈ 32 µM).
With `CCOCc1ccc2oc(CNC(=O)c3ccc(COC)nc3N)cc2c1` [Example 81, 2-Amino-N-(5-ethoxymethyl-benzofuran-2-ylmethyl)-6-methoxymethyl-nicotinamide] the MIC [2] was 6.25 µg/mL (≈ 16.9 µM).
